# Reference: patent US9060981B2, “Marker associated with non-alcoholic steatohepatitis” (MOCHIDA PHARMACEUTICAL CO., LTD., priority 2009, dated 2015)
# Entries after “also recorded” stand apart in the source; their conditions may differ.
# How the values were obtained:
# [1] = system: B6 mice; test: Fatty liver in B6 mice raised 20 weeks on high fat/high sugar diet; format: in vivo, mouse; details: high fat/high sugar diet + 5% EPA-E, free feeding, 20 weeks (group III)
# From the text: B6 mice (10 week old) were divided into control group (I), HF-HS group (II), and EPA group (III) (n=7 to 10), and the mice were raised for 20 weeks by free feeding of the following diet.
# [2] = system: second factor group genes in the liver; test: Gene microarray analysis of the liver of mice on high fat/high sugar diet; format: in vivo, mouse; details: EPA group vs HF-HS group, 20 weeks
# From the text: (2) Next, expression of genes in the liver was compared in 3 groups, namely, the control group fed with normal diet, the HF-HS group, and the EPA group. […] (A) HF-HS group/control group ≧2 and EPA group/HF-HS group ≦0.5. (B) HF-HS group/control group ≦0.5 and EPA group/HF-HS group ≧2. Liver was extirpated from the mice of each group, and RNA was extracted by homogenization to conduct gene microarray analysis of the liver. The genes were selected as described below. (1) Genes with group II/group I expression ratio of 2 or higher and group III/group II expression ratio of up to 1/2 were selected. (2) Genes with the group II/group I expression ratio of up to 1/2 and the group III/group II ratio of 2 or more were selected. […] (4) Genes which are (1) but not (3) were selected. (5) Genes which are (2) but not (3) were selected. Next, factors with the possibility of protein secretion into blood were selected from the genes (4), and then, genes satisfying any of relevance with lipid metabolism, relevance with inflammation, increase of expression in the liver of SREBP transgenic mouse were selected from these genes. Genes were selected from the genes (5) by conducting the procedure corresponding to (6).
# [3] = system: NASH model rats; details: telmisartan administered for 10 weeks; cited from earlier work
Structure (SMILES),fatty liver [1],"group III/group II expression ratio, second factor (A) group genes ([2]; genes with group II/group I ratio of 2 or higher (Table 2))","group III/group II expression ratio, second factor (B) group genes ([2]; genes with group II/group I ratio of up to 1/2 (Table 3))",expression of TIMP1 and TIMP2 mRNAs in the liver tissue [3],liver fibrosis [3]
"CC/C=C\C/C=C\C/C=C\C/C=C\C/C=C\CCCC(=O)OCC [EPA-E, ethyl icosapentate]",fatty liver was not observed; also recorded: fatty liver was not induced,up to 1/2,≥ 2,–,–
CCCc1nc2c(C)cc(-c3nc4ccccc4n3C)cc2n1Cc1ccc(-c2ccccc2C(=O)O)cc1 [telmisartan],–,–,–,decrease,suppression; also recorded: suppressed
